This is an account of results in ChEMBL document CHEMBL1159105, “Predictive screening model for potential vector-mediated transport of cationic substrates at the blood-brain barrier choline transporter” (Bioorg Med Chem Lett, 2010).

Each structure is given as a SMILES string.

For one test, the species on record is Rattus norvegicus. The test is described as follows: Inhibition of blood brain barrier choline transporter-mediated [3H]choline uptake in Fischer-344 rat brain at 250 uM by perfusion technique. The class given is tissue-based.
Test [1] in a line: Inhibition of nAChR-mediated nicotine-induced [3H]dopamine release.

`Cc1cc(C)c[n+](CCCCCCCCCCC[n+]2cc(C)cc(C)c2)c1`: the logKi in the test filed under Rattus norvegicus is 1.81. Still for that read-out and setting: then `CCCCc1ccc(CCCC[n+]2ccc(C)cc2)cc1`, with 2.69. On to `Cc1cc[n+](CCC#Cc2ccc(C#CCC[n+]3ccc(C)cc3)cc2)cc1`, for which the logKi in the test listed under Rattus norvegicus came out at 0.929. Take `Cc1cc[n+](CCC#Cc2ccc(C#CCC[n+]3ccc(C)c(C)c3)cc2)cc1C`: in the test filed under Rattus norvegicus, the logKi was found to be 0.924. On the same count and under the same terms, then `Cc1cc[n+](CCCc2ccc(-c3ccc(CCC[n+]4ccc(C)cc4)cc3)cc2)cc1`, with 1.63; and `OCCCc1ccc[n+](CCCc2ccc(CCC[n+]3cccc(CCCO)c3)cc2)c1`, with 2.09; and `C1#Cc2ccc[n+](c2)CCCCCC[n+]2cccc(c2)C#CCCCCCCCC1`, with 1.53. For `CCCCC#CCCCCCC[n+]1cccc(C2CCCN2C)c1` (stereo unspecified), the logKi in the test listed under Rattus norvegicus was 1.92.

Take `Cc1cccc[n+]1CCCc1ccc(-c2ccc(CCC[n+]3ccccc3C)cc2)cc1`: in the test listed under Rattus norvegicus, the logKi amounted to 2. As to `c1cc(-c2ccc(CCC[n+]3ccc4c(c3)CCCC4)cc2)ccc1CCC[n+]1ccc2c(c1)CCCC2`, the logKi in the test filed under Rattus norvegicus amounted to 1.2. The IC50 is the midpoint of a concentration-inhibition curve. Low values mean greater potency in that assay, high ones weaker potency in that assay. In test [1], `Cc1ccc[n+](CCCCCCCCCCCC[n+]2cccc(C)c2)c1` showed an IC50 of 2 nM. For the molecule `Cc1cc[n+](CCCCCCCCCCCC[n+]2ccc(C)cc2)cc1`, the logKi in the test filed under Rattus norvegicus is 1.93. In the case of `c1ccc2c(c1)ccc[n+]2CCCCCC[n+]1cccc2ccccc21`, the logKi in the test listed under Rattus norvegicus stood at 1.26. Still for that read-out and setting: for `CN1CCCC1c1ccc[n+](CCCc2ccc(-c3ccc(CCC[n+]4cccc(C5CCCN5C)c4)cc3)cc2)c1` (stereo unspecified) the value was 1.73. Regarding `Cc1cc(C)c[n+](CCCCc2ccc(CCCC[n+]3cc(C)cc(C)c3)cc2)c1`, in the test filed under Rattus norvegicus, the logKi was 2.56.

`C(#Cc1ccc(C#CCC[n+]2ccc3c(c2)CCCC3)cc1)CC[n+]1ccc2c(c1)CCCC2`: the logKi in the test listed under Rattus norvegicus worked out at 0.732. Still for that read-out and setting: for `CC[N+](CC)(CC)CCCCCCCCCCCC[n+]1cccc(C)c1` the value was 1.34. On the same count and under the same terms, for `Cc1cc[n+](C#Cc2ccc(-c3ccc(C#C[n+]4ccc(C)c(C)c4)cc3)cc2)cc1C` the value was 1.98; for `OCCCc1ccc[n+](CCCc2ccc(-c3ccc(CCC[n+]4cccc(CCCO)c4)cc3)cc2)c1`, 1.86; for `Cc1cc(C)c[n+](CCC#Cc2ccc(C#CCC[n+]3cc(C)cc(C)c3)cc2)c1`, 0.867.

The molecule `CCCCC#CCCCCCC[n+]1ccc(C)cc1` registered a logKi in the test filed under Rattus norvegicus of 2.58. In the test filed under Rattus norvegicus, `Cc1cc[n+](CCCc2ccc(-c3ccc(CCC[n+]4ccc(C)c(C)c4)cc3)cc2)cc1C` showed a logKi of 1.75. On the same count and under the same terms, for `c1cc2c([n+](CCCc3ccc(-c4ccc(CCC[n+]5cccc6c5CCCC6)cc4)cc3)c1)CCCC2` the value was 1.37. Same read-out and setting: then `C1#Cc2ccc[n+](c2)CCCCCCCCC[n+]2cccc(c2)C#CCCCCCCCC1`, with 0.146; and `C1#Cc2ccc[n+](c2)CCCCCCCCCCC[n+]2cccc(c2)C#CCCCCCCCC1`, with 1.18.

As to `Cc1ccc[n+](CCC#Cc2ccc(C#CCC[n+]3cccc(C)c3)cc2)c1`, the logKi in the test listed under Rattus norvegicus came out at 0.595.
